Reference: patent US11672762B2, “Onapristone extended-release compositions and methods” (Context Biopharma Inc., priority 2014, dated 2023)

Experiments:
[1] = original immediate release (IR) formulation; cited from earlier work
[2] = human, in vivo
Text: PK results for onapristone are available for 52 patients from the a first study (ARN-AR18-CT-101) (Table 1). Variability for onapristone PK is moderate and greater for the IR versus the ER formulation. Onapristone Cmax and AUC values for the ER form are proportional to administered dose (FIGS. 1 and 2). Based on observed mean AUC values, oral bioavailability for the ER versus the IR formulation is approximately 50% (FIG. 24). A later Tmax value for the ER form results in somewhat lower dose-corrected Cmax values for the ER form compared to the IR form. Steady state is attained before day 8 with a mean t % of 7.5 hrs.
Table 1 compares descriptive statistics for the primary onapristone pharmacokinetic exposure parameters following single oral doses from 10 to 50 mg of extended-release onapristone compared to that from 100 mg immediate-release onapristone (Study ARN-AR18-CT-101). […]
Blood samples were collected at 0, 1, 2, 3, 4, 6, 8, 12 (before next BID dose), and 24 (before next dose—for 100 mg IR only) hours post-ONA, as well as hour 0 on days 8, 29 and 57 (just before drug intake). Plasma concentrations of ONA, mono-demethylated onapristone (M1) and other metabolites in plasma and urine were analyzed with a validated ultra-performance liquid chromatography with tandem mass spectrometry detection (UPLC-MS/MS) assay. […]

[3] = system: gonadotrophin (LH and FSH) secretion; details: immediate release doses of 1 and 10 mg; cited from earlier work

Steady state attained [2]: < 8 days | mean t % [2]: 7.5 h
Compound: CN(C)c1ccc([C@H]2C[C@]3(C)[C@@H](CC[C@]3(O)CCCO)[C@@H]3CCC4=CC(=O)CCC4=C32)cc1 [onapristone, (8S,11R,13R,14S,17S)-11-[4-(dimethylamino)phenyl]-17-hydroxy-17-(3-hydroxypropyl)-13-methyl-1,2,6,7,8,11,12,14,15,16-decahydrocyclopenta[a]phenanthren-3-one]
tolerability [1]: well-tolerated with the exception of abnormalities in liver function tests | effect on gonadotrophin (LH, FSH) secretion [3]: dose-dependent effect of onapristone on suppression of gonadotrophin
